Source: PubChem BioAssay (NCI)
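Results reflect a 48-hour exposure of cells in 96-well plates to compound at five concentrations. GI50 marks 50% less growth. Definition used: TGI = concentration required for complete inhibition of growth.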

Key:
Test in all cases: NCI anticancer screen, dose series, 48 h
HOP-62 NSCLC = tested on: HOP-62 NSCLC
KM12 colon = tested on: KM12 colon
A498 renal = tested on: A498 renal
HCT-116 colon = tested on: HCT-116 colon
RXF 393 renal = tested on: RXF 393 renal
DU-145 prostate = tested on: DU-145 prostate
TK-10 renal = tested on: TK-10 renal
MOLT-4 leukemia = tested on: MOLT-4 leukemia
M14 melanoma = tested on: M14 melanoma
OVCAR-3 ovarian = tested on: OVCAR-3 ovarian
OVCAR-4 ovarian = tested on: OVCAR-4 ovarian
HCT-15 colon = tested on: HCT-15 colon
SF-295 CNS = tested on: SF-295 CNS
SK-MEL-28 melanoma = tested on: SK-MEL-28 melanoma
SK-MEL-5 melanoma = tested on: SK-MEL-5 melanoma
U251 CNS = tested on: U251 CNS
SW-620 colon = tested on: SW-620 colon
RPMI-8226 leukemia = tested on: RPMI-8226 leukemia
BT-549 breast = tested on: BT-549 breast
SNB-75 CNS = tested on: SNB-75 CNS
SF-539 CNS = tested on: SF-539 CNS
OVCAR-8 ovarian = tested on: OVCAR-8 ovarian
HCC-2998 colon = tested on: HCC-2998 colon
EKVX NSCLC = tested on: EKVX NSCLC
CAKI-1 renal = tested on: CAKI-1 renal
SR leukemia = tested on: SR leukemia
ACHN renal = tested on: ACHN renal
T-47D breast = tested on: T-47D breast
SNB-19 CNS = tested on: SNB-19 CNS
NCI-H23 lung = tested on: NCI-H23 lung
NCI-H460 lung = tested on: NCI-H460 lung
MDA-MB-231 breast = tested on: MDA-MB-231 breast
HOP-92 NSCLC = tested on: HOP-92 NSCLC
A549 NSCLC = tested on: A549 NSCLC
OVCAR-5 ovarian = tested on: OVCAR-5 ovarian
UO-31 renal = tested on: UO-31 renal
MALME-3M melanoma = tested on: MALME-3M melanoma
COLO 205 colon = tested on: COLO 205 colon
SN12C renal = tested on: SN12C renal
SK-OV-3 ovarian = tested on: SK-OV-3 ovarian
LOX IMVI melanoma = tested on: LOX IMVI melanoma
HT29 colon = tested on: HT29 colon
UACC-62 melanoma = tested on: UACC-62 melanoma
MCF7 breast = tested on: MCF7 breast
PC-3 prostate = tested on: PC-3 prostate
SF-268 CNS = tested on: SF-268 CNS
786-0 renal = tested on: 786-0 renal
HS 578T breast = tested on: HS 578T breast
NCI-H522 lung = tested on: NCI-H522 lung
K-562 leukemia = tested on: K-562 leukemia
IGROV1 ovarian = tested on: IGROV1 ovarian
HL-60(TB) leukemia = tested on: HL-60(TB) leukemia
SK-MEL-2 melanoma = tested on: SK-MEL-2 melanoma
MDA-MB-435 = tested on: MDA-MB-435
NCI-H226 lung = tested on: NCI-H226 lung
NCI/ADR-RES ovarian = tested on: NCI/ADR-RES ovarian

Compound: COc1ccc(N(CC(=O)NCCC[Te]c2ccccc2)C(=O)c2ccccc2)cc1
- GI50 (HOP-62 NSCLC): 2.41 µM
- TGI (HOP-62 NSCLC): 5.32 µM
- GI50 (KM12 colon): 3.13 µM
- TGI (KM12 colon): 11.9 µM
- GI50 (A498 renal): 2.17 µM
- TGI (A498 renal): 5.35 µM
- GI50 (HCT-116 colon): 2.55 µM
- TGI (HCT-116 colon): 10.2 µM
- GI50 (RXF 393 renal): 12 µM
- TGI (RXF 393 renal): 30.3 µM
- GI50 (DU-145 prostate): 3.9 µM
- TGI (DU-145 prostate): 13.9 µM
- GI50 (TK-10 renal): 3.85 µM
- TGI (TK-10 renal): 11.4 µM
- GI50 (MOLT-4 leukemia): 3.51 µM
- TGI (MOLT-4 leukemia): 17.5 µM
- GI50 (M14 melanoma): 4.21 µM
- TGI (M14 melanoma): 15.4 µM
- GI50 (OVCAR-3 ovarian): 5.75 µM
- TGI (OVCAR-3 ovarian): 19.8 µM
- GI50 (OVCAR-4 ovarian): 11.9 µM
- TGI (OVCAR-4 ovarian): 25.2 µM
- GI50 (HCT-15 colon): 2.95 µM
- TGI (HCT-15 colon): 15 µM
- GI50 (SF-295 CNS): 1.68 µM
- TGI (SF-295 CNS): 8.17 µM
- GI50 (SK-MEL-28 melanoma): 4.33 µM
- TGI (SK-MEL-28 melanoma): 15.6 µM
- GI50 (SK-MEL-5 melanoma): 2.4 µM
- TGI (SK-MEL-5 melanoma): 6.08 µM
- GI50 (U251 CNS): 2.82 µM
- TGI (U251 CNS): 9.4 µM
- GI50 (SW-620 colon): 3.87 µM
- TGI (SW-620 colon): 14.4 µM
- GI50 (RPMI-8226 leukemia): 3.18 µM
- TGI (RPMI-8226 leukemia): 19.2 µM
- GI50 (BT-549 breast): 2.39 µM
- TGI (BT-549 breast): 8.68 µM
- GI50 (SNB-75 CNS): 2.58 µM
- TGI (SNB-75 CNS): 9.64 µM
- GI50 (SF-539 CNS): 2.3 µM
- TGI (SF-539 CNS): 6 µM
- GI50 (OVCAR-8 ovarian): 3.03 µM
- TGI (OVCAR-8 ovarian): 8.12 µM
- GI50 (HCC-2998 colon): 3.03 µM
- TGI (HCC-2998 colon): 8.21 µM
- GI50 (EKVX NSCLC): 0.407 µM
- TGI (EKVX NSCLC): 5.27 µM
- GI50 (CAKI-1 renal): 2.98 µM
- TGI (CAKI-1 renal): 14.9 µM
- GI50 (SR leukemia): 2.82 µM
- GI50 (ACHN renal): 3.17 µM
- TGI (ACHN renal): 9.6 µM
- GI50 (T-47D breast): 3.4 µM
- TGI (T-47D breast): 21.6 µM
- GI50 (SNB-19 CNS): 4.06 µM
- TGI (SNB-19 CNS): 59 µM
- GI50 (NCI-H23 lung): 3.17 µM
- TGI (NCI-H23 lung): 9.36 µM
- GI50 (NCI-H460 lung): 0.543 µM
- TGI (NCI-H460 lung): 2.37 µM
- GI50 (MDA-MB-231 breast): 2.08 µM
- TGI (MDA-MB-231 breast): 4.76 µM
- GI50 (HOP-92 NSCLC): 4.1 µM
- GI50 (A549 NSCLC): 0.382 µM
- TGI (A549 NSCLC): 2.14 µM
- GI50 (OVCAR-5 ovarian): 3.8 µM
- TGI (OVCAR-5 ovarian): 11.4 µM
- GI50 (UO-31 renal): 2.77 µM
- TGI (UO-31 renal): 10.9 µM
- GI50 (MALME-3M melanoma): 16.7 µM
- TGI (MALME-3M melanoma): 34.7 µM
- GI50 (COLO 205 colon): 2.58 µM
- TGI (COLO 205 colon): 6.03 µM
- GI50 (SN12C renal): 2.7 µM
- TGI (SN12C renal): 8.51 µM
- GI50 (SK-OV-3 ovarian): 2.55 µM
- TGI (SK-OV-3 ovarian): 6 µM
- GI50 (LOX IMVI melanoma): 3.69 µM
- TGI (LOX IMVI melanoma): 14.3 µM
- GI50 (HT29 colon): 3.84 µM
- TGI (HT29 colon): > 100 µM
- GI50 (UACC-62 melanoma): 2.53 µM
- TGI (UACC-62 melanoma): 7.5 µM
- GI50 (MCF7 breast): 3.17 µM
- TGI (MCF7 breast): 10.8 µM
- GI50 (PC-3 prostate): 2.68 µM
- TGI (PC-3 prostate): 12.6 µM
- GI50 (SF-268 CNS): 3.19 µM
- TGI (SF-268 CNS): 10.8 µM
- GI50 (786-0 renal): 5.09 µM
- TGI (786-0 renal): 19.6 µM
- GI50 (HS 578T breast): 2.97 µM
- TGI (HS 578T breast): 8.41 µM
- GI50 (NCI-H522 lung): 3.1 µM
- TGI (NCI-H522 lung): 8.84 µM
- GI50 (K-562 leukemia): 5.17 µM
- TGI (K-562 leukemia): > 100 µM
- GI50 (IGROV1 ovarian): 2.88 µM
- TGI (IGROV1 ovarian): 8.27 µM
- GI50 (HL-60(TB) leukemia): 2.12 µM
- TGI (HL-60(TB) leukemia): 5.73 µM
- GI50 (SK-MEL-2 melanoma): 4.19 µM
- TGI (SK-MEL-2 melanoma): 15.3 µM
- GI50 (MDA-MB-435): 8.06 µM
- TGI (MDA-MB-435): 30.2 µM
- GI50 (NCI-H226 lung): 2.62 µM
- TGI (NCI-H226 lung): 7.21 µM
- GI50 (NCI/ADR-RES ovarian): 3.23 µM
- TGI (NCI/ADR-RES ovarian): 10.8 µM
